Reference: US10731187B2, “Recombinant strain producing O-aminobenzoate and fermentative production of aniline from renewable resources via 2-aminobenzoic acid” (Covestro Deutschland AG, priority 2014, dated 2020)

What was measured:
E. coli = experiment: Shake flask growth (OD600) with supplementation of toxic substances; type: cell-based, Escherichia coli K12; details: 3 g/L pAB, pH 7, shake flask
Text: (§1) Several strains commonly used industrial biotechnology were investigated regarding their natural tolerance towards oAB and to organic solvents in question for later product extraction (e.g. 1-dodecanol or octanol). Furthermore, the influence of the used pH value was investigated. It was known from previous experiments that at least for E. coli the toxicity of aromatic compounds depends strongly on the pH value, probably because protonated acids can much more efficiently penetrate the cell membrane and accordingly their toxicity rises severely. The extraction of oAB in an organic phase is supposed to work best at low pH values, close to the isoelectric point of oAB. The most relevant host strains considered were: Escherichia coli K12, Corynebacterium glutamicum DSM 20300 (=ATCC 13032), Pseudomonas putida KT2440, Bacillus subtilis subsp. 168, Saccharomyces cerevisiae DSM 70449, and Pichia pastoris X33 (DSM 70382).
(§2) To investigate the chosen strains towards the mentioned characteristics shake flasks and small scale fermentation experiments were performed and the organisms were supplemented with the toxic substances (aminobenzoates, solvents) at differed concentrations, different pH values, and the behaviour of the strains was studied. […]

[1] = tested on: Corynebacterium glutamicum; experiment: Growth (OD600) in shake flask cultures supplemented with toxic substances; type: cell-based, Corynebacterium glutamicum DSM 20300 (=ATCC 13032); details: 3 g/L, pH 7 (MOPS), 25 h
Text: as §1, §2

P. putida = experiment: Shake flask growth (OD600) with supplementation of toxic substances; type: cell-based, Pseudomonas putida KT2440; details: after octanol addition, pH 7, shake flask
Text: as §1, §2

all organisms = experiment: Toxicity of the extraction solvent octanol, shake flask growth; type: cell-based; details: 0.1 g/L and 3 g/L octanol
Text: as §1, §2

[2] = cited from earlier work
[3] = target: T1, E. coli TrpEG (anthranilate synthase) variant TrpEGS40R, mutation S40R (SEQ ID NO: 52; SEQ ID No. 50-51) (Escherichia coli, UniProt P00895); experiment: Anthranilate synthase activity in cell lysate of C. glutamicum ΔtrpD/pEKEx2-trpEG^S40R (KM and vmax); type: biochemical; details: raw extract (cell lysate), 25 °C, 20 mM L-glutamine, 10 mM MgCl2
T1 construct: S40R lies in TrpE
Text: In more specific embodiments of the recombinant microbial host cell of invention, the Corynebacterium glutamicum microbial host cell, preferably Corynebacterium glutamicum ATCC 13032, can further overexpress one or more of the genes selected from the group consisting of galP (SEQ ID NO: 30), iolT2 (SEQ ID NO: 31), ppgk (SEQ ID NO: 32), pps (SEQ ID NO: 33-35), ppk (SEQ ID NO: 36), zwfl (SEQ ID NO: 37), opcA (SEQ ID NO: 38-39), tktCg (SEQ ID NO: 40), tktEc (SEQ ID NO: 41), talCg (SEQ ID NO: 42), tame (SEQ ID NO: 43), a gene encoding TrpEGS38F (trpEG^S38F, SEQ ID NO: 50), a gene encoding TrpEGS38R (trpEG^S38R, SEQ ID NO: 51), a gene encoding TrpEGS40R (trpEG^S40R, SEQ ID NO: 52), a gene encoding TrpEGS40F (trpEG^S40F, SEQ ID NO: 53), the gene encoding AroGD146N (aroG^D146N, SEQ ID NO: 55), aroL of Escherichia coli LJ110 (SEQ ID NO: 93), aroK (SEQ ID NO: 94), glnA (SEQ ID NO: 95), and qsuA (SEQ ID NO: 96). […]

With `Nc1ccc(C(=O)O)cc1` [pAB, 4-aminobenzoate, reference compound] as the compound, how does the “growth (OD600)” value (E. coli) read?
The value was “not inhibited”.

For `Nc1ccccc1C(=O)O` [oAB, o-aminobenzoate], which growth inhibition [1] is on record?
The growth inhibition was “growth was not inhibited”.

Which “growth (OD600)” value (P. putida) does the source give for `CCCCCCCCO` [octanol] here?
Its value is “minor growth activity”.

And the “growth (OD600)” value (all organisms)?
Its value is “unable to grow”.

What about the solubility in water ([2]; octanol) of the same compound?
The solubility in water was “about 0.1 g/L”.

For `CCCCCCCCCCCCO` [1-dodecanol], which miscibility in water ([2]; 1-dodecanol) is on record?
Its miscibility in water is 0.004 g/L.

Which Vmax [3] does the source give for `C=C(O[C@@H]1C=C(C(=O)O)C=C[C@H]1O)C(=O)O` [chorismate] here?
Its Vmax is 317.9 mU/mg.
